Conditions: not given

In order of falling melting point:
1. O=C1c2ccccc2-c2ccc3c4c(ccc1c24)-c1ccccc1C3=O  385 °C
2. C[C@]12CC[C@@H]3c4ccc(O)cc4CC[C@H]3[C@@H]1C[C@@H](O)[C@@H]2O  282 °C
3. NS(=O)(=O)c1cc2c(cc1C(F)(F)F)NCNS2(=O)=O  270 °C
4. CCOC(=O)C1(c2ccccc2)CCN(C)CC1  270 °C
5. O=C(NC(=O)c1c(F)cccc1F)Nc1ccc(Cl)cc1  239 °C
6. ICC(CI)(CI)CI  225 °C
7. N#Cc1cc[n+]([O-])cc1  224 °C
8. O=C(O)c1cc2ccccc2cc1O  222 °C
9. CC(CCc1ccccc1)NC(C)C(O)c1cc(I)c(O)c(I)c1 (centres undefined)  212 °C
10. CC(=O)c1c(O)c(C)c(O)c2c1OC1=CC(=O)C(C(C)=O)C(=O)C12C (centres undefined)  204 °C
11. COc1cc(C=O)ccc1O[C@@H]1O[C@H](CO)[C@@H](O)[C@H](O)[C@H]1O  189 °C
12. O=C(O)c1cccc2cccnc12  187 °C
13. CCN1CCCC1CNC(=O)c1cc(S(=O)(=O)CC)ccc1OC (centres undefined)  182 °C
14. C[C@H](CN1CCOCC1)C(C(=O)N1CCCC1)(c1ccccc1)c1ccccc1  182 °C
15. CC(=O)OCC(=O)[C@@]12OC(C)(C)O[C@@H]1C[C@H]1[C@@H]3CC(C=O)=C4C=C(OCCCl)CC[C@]4(C)[C@@]3(F)[C@@H](O)C[C@@]12C  181 °C
16. COc1cc(OC)nc(NC(=O)NS(=O)(=O)c2ncccc2C(F)(F)F)n1  180 °C
17. Oc1ccc2ccc3cccc4ccc1c2c34  180 °C
18. O=[N+]([O-])c1cccc2cccc([N+](=O)[O-])c12  173 °C
19. COc1ccc(Cl)cc1C(=O)NCCc1ccc(S(=O)(=O)NC(=O)NC2CCCCC2)cc1  169 °C
20. O=C(CO)[C@@H](O[C@H]1O[C@H](CO)[C@@H](O)[C@H](O)[C@H]1O)[C@H](O)[C@H](O)CO  168 °C
21. O=c1[nH]cnc2c1ncn2[C@H]1CC[C@@H](CO)O1  162 °C
22. Cc1ccccc1NC(N)=S  162 °C
23. O=c1cccc2n1CC1CNCC2C1 (centres undefined)  152 °C
24. NC(=O)NO  141 °C
25. Cc1ccc(S(N)(=O)=O)cc1  138 °C
26. COc1cc(-c2ccc(N)c(OC)c2)ccc1N  137 °C
27. CCC(=O)O[C@H]1CC[C@H]2[C@@H]3CC[C@H]4CC(=O)[C@H](C)C[C@]4(C)[C@H]3CC[C@]12C  128 °C
28. NC(=O)C(Br)(Br)Br  122 °C
29. Cc1ccccc1-n1c(C)nc2ccccc2c1=O  120 °C
30. Nc1ccc(OCCCCCN2C(=O)c3ccccc3C2=O)cc1  114 °C
31. CNC(=O)Oc1cc(C(C)(C)C)cc(C(C)(C)C)c1  103 °C
32. CCCCC(C(N)=O)n1nc2ccccc2n1 (centres undefined)  102 °C
33. CC(C(=O)O)c1ccc(C(=O)c2ccccc2)s1 (centres undefined)  96 °C
34. O=C(Nc1ccccc1)C(Cl)(Cl)Cl  96 °C
35. Clc1ccc2c(Cl)ccnc2c1  93 °C
36. CCc1cc2ccccc2c2ccccc12  62.5 °C
37. COc1c(Cl)cc(Cl)cc1Cl  61.5 °C
38. OCCc1c[nH]c2ccccc12  59 °C
39. CCOC(=O)C1(S(=O)(=O)c2ccc(C)cc2)CCC1  53.5 °C
40. Oc1ccccc1C=Nc1ccccc1  49.5 °C
41. CC(c1ccccc1)C(C)(C)O (centres undefined)  46 °C
42. O=P(N1CC1)(N1CC1)N1CC1  41 °C
43. O=CNC1CCCCC1  39.5 °C
44. O=C(C=Cc1ccccc1)OCc1ccccc1  39 °C
45. CC1(C(=O)O)CCCCC1  37.5 °C
46. C#CCCCCCCCCCCCCCCCCCC  36 °C
47. CC/C=C(\C)C(=O)O  24.4 °C
48. C1CCSCC1  19 °C
49. C[Si]1(C)O[Si](C)(C)O[Si](C)(C)O[Si](C)(C)O1  17.5 °C
50. C=COCCCCCCCCCCCCCCCC  16 °C
51. BrCCCCCCCCBr  15.5 °C
52. Cc1nc2ccccc2s1  14 °C
53. O=C(Cl)CCc1ccccc1  -2 °C
54. CC(C)(C)c1ccc2ccccc2c1  -4 °C
55. C=Cc1cccc([N+](=O)[O-])c1  -10 °C
56. CC(C)c1ccc(Cl)cc1  -12.3 °C
57. ClC(Cl)(Br)CBr  -26 °C
58. CCc1ccccc1N  -46.5 °C
59. CCCCCCCc1ccccc1  -48 °C
60. NCCc1ccccc1  -60 °C
61. CC(C)c1cccc(C(C)C)c1  -63.1 °C
62. CCOOCC  -70 °C
63. CN=NC  -78 °C
64. CC=CCCCCC  -80 °C
65. CC(C)(F)F  -105 °C
66. CC(C)CCCC(C)(C)C  -105 °C
67. FC(F)(F)C(F)(F)C(F)(F)C(F)(C(F)(F)F)C(F)(F)F  -119 °C

In order of falling boiling point:
1. COc1cc(-c2ccc(N)c(OC)c2)ccc1N  356 °C
2. O=C(C=Cc1ccccc1)OCc1ccccc1  350 °C
3. C#CCCCCCCCCCCCCCCCCCC  340 °C
4. CC(C)(C)c1ccc2ccccc2c1  276 °C
5. BrCCCCCCCCBr  271 °C
6. CCCCC(CC)CNC1CCCCC1 (centres undefined)  270 °C
7. COc1ccccc1C1CCCCC1  268 °C
8. O=CNC1CCCCC1  260 °C
9. CC(=O)c1cccc(Cl)c1  244 °C
10. COc1c(Cl)cc(Cl)cc1Cl  241 °C
11. CCCCCCCc1ccccc1  240 °C
12. Cc1nc2ccccc2s1  238 °C
13. N#Cc1ccc(Br)cc1  236 °C
14. CC1(C(=O)O)CCCCC1  234 °C
15. CC/C=C(\C)C(=O)O  214 °C
16. CNc1ccc(C)cc1  210 °C
17. CCc1ccccc1N  210 °C
18. COC(=O)C1=CCCN(C)C1  209 °C
19. CC(C)c1cccc(C(C)C)c1  203 °C
20. CC(C)c1ccc(Cl)cc1  198 °C
21. NCCc1ccccc1  198 °C
22. CC(c1ccccc1)C(C)(C)O (centres undefined)  197 °C
23. CCC[C@H]1CCCCC1=O  197 °C
24. ClC(Cl)(Br)CBr  195 °C
25. COc1cccc(Cl)c1  194 °C
26. N#Cc1cccs1  192 °C
27. CCCCCC(=O)CCC  188 °C
28. C[Si]1(C)O[Si](C)(C)O[Si](C)(C)O[Si](C)(C)O1  176 °C
29. O=C(Cl)CCCCl  174 °C
30. CC1=CCC(C(C)C)C=C1 (centres undefined)  172 °C
31. Fc1cccc(Br)c1  150 °C
32. CC(C)CCCC(C)(C)C  149 °C
33. ClC(Cl)[Si](Cl)(Cl)Cl  145 °C
34. C1CCSCC1  142 °C
35. CCC(C)COC(C)=O (centres undefined)  140 °C
36. CCN1CCCCC1  131 °C
37. Fc1cccc(F)n1  125 °C
38. CC=CCCCCC  124 °C
39. CCCCC(C)Cl (centres undefined)  122 °C
40. CCCC(C)C=O (centres undefined)  117 °C
41. Cn1cccc1  115 °C
42. CC1(C)CCC(C)(C)O1  112 °C
43. C=CC#CCC  85 °C
44. C=CCOC=C  66 °C
45. CCOOCC  65 °C
46. FC(F)(F)C(F)(F)C(F)(F)C(F)(C(F)(F)F)C(F)(F)F  57.6 °C
47. C[C@H](F)Cl  16.2 °C
48. CN=NC  1.5 °C
49. CC(C)(F)F  -0.4 °C

In order of rising log10 vapour pressure (mmHg):
1. O=C(NC(=O)c1c(F)cccc1F)Nc1ccc(Cl)cc1  -9.05
2. Oc1ccc2ccc3cccc4ccc1c2c34  -8.32
3. CNC(=O)Oc1cc(C(C)(C)C)cc(C(C)(C)C)c1  -5.7
4. O=C(C=Cc1ccccc1)OCc1ccccc1  -5
5. Cc1nc2ccccc2s1  -1.52
6. CCCCCCCc1ccccc1  -1.51
7. COC(=O)C1=CCCN(C)C1  -1.1
8. CCCCCCCC(=O)OC(C)C  -0.963
9. CCc1ccccc1N  -0.77
10. CC(C)c1cccc(C(C)C)c1  -0.406
11. ClC(Cl)(Br)CBr  -0.0458
12. C[Si]1(C)O[Si](C)(C)O[Si](C)(C)O[Si](C)(C)O1  0.0212
13. CC1=CCC(C(C)C)C=C1 (centres undefined)  0.147
14. C1CCSCC1  0.895
15. CCCCC(C)Cl (centres undefined)  1.13
16. CC=CCCCCC  1.21
17. Cn1cccc1  1.33

In the case of CC(C)(C)c1cc(N=Nc2ccccc2[N+](=O)[O-])c(O)c(C(C)(C)C)c1, the ready biodegradability was “not readily biodegradable”.
With O=C(O)c1cc2ccccc2cc1O the ready biodegradability was “not readily biodegradable”.
In the case of NCCc1ccccc1, the ready biodegradability was “readily biodegradable”.
For Cn1cccc1, the ready biodegradability was “readily biodegradable”.
In the case of C=COC(=O)CCl, the ready biodegradability was “readily biodegradable”.
With CCCCCCCCCCCCOS(=O)(=O)O the ready biodegradability was “readily biodegradable”.
For C=Cc1cccc([N+](=O)[O-])c1, the ready biodegradability was “not readily biodegradable”.
In the case of O=C(O)CCCCCCCCCCCCCCC(=O)O, the ready biodegradability was “readily biodegradable”.
In the case of Cc1ccc(S(N)(=O)=O)cc1, the ready biodegradability was “not readily biodegradable”.
In the case of COc1cc(-c2ccc(N)c(OC)c2)ccc1N, the ready biodegradability was “not readily biodegradable”.
With CC1(OO)CCC2CC1C2(C)C (centres undefined) the ready biodegradability was “not readily biodegradable”.

Work on C[Si]1(C)O[Si](C)(C)O[Si](C)(C)O[Si](C)(C)O1 yielded a log10 Henry constant (atm·m³/mol) of 1.08.

In order of falling log10 Koc (L/kg):
1. O=C1c2ccccc2-c2ccc3c4c(ccc1c24)-c1ccccc1C3=O  4.28
2. O=C(NC(=O)c1c(F)cccc1F)Nc1ccc(Cl)cc1  3.83
3. CNC(=O)Nc1ccc(C)c(Cl)c1  2.1
4. CC(C)N1C(=O)c2ccccc2[N]([Na])S1(=O)=O  1.54

With CC(C)Cc1ccccc1 the log10 biodegradation half-life (days) was 1.

Clc1cc(Cl)c2c(Cl)cccc2c1Cl gave a log10 Koa of 8.58.

Same assay, conditions: fish

In order of rising log10 BCF:
1. Nc1cc(S(=O)(=O)O)cc2cc(S(=O)(=O)[O][Na])cc(O)c12  0.46
2. O=C(O)c1cc2ccccc2cc1O  0.6
3. O=C(NC(=O)c1c(F)cccc1F)Nc1ccc(Cl)cc1  2.2
4. COc1c(Cl)cc(Cl)cc1Cl  2.86
5. CC(C)c1cccc(C(C)C)c1  3.28

In order of rising log10 biotransformation half-life (days):
1. CCc1cc2ccccc2c2ccccc12  0.29
2. CC(C)c1cccc(C(C)C)c1  0.56
3. C[Si]1(C)O[Si](C)(C)O[Si](C)(C)O[Si](C)(C)O1  1.88

From the OPERA property sets (Mansouri et al. 2018)
